{"source": "patent US10130590B2", "about": "“Methods of treating cancer with atovaquone-related compounds” (DANA-FARBER CANCER INSTITUTE, INC., priority 2013, dated 2018)", "key": {"[1]": {"tested_on": "acute myeloid leukemia (AML)", "assay": "Retrospective analysis of atovaquone exposure in AML patients after HSCT", "format": "in vivo, human", "experimental": "Atovaquone start and end dates for approximately 500 AML patients who underwent HSCT at Dana-Farber Cancer Institute from 2006-2012 were obtained by chart review of the electronic medical record with DFCI IRB approval. Atovaquone was administered as a suspension, 750 mg twice daily. Due to the intermittent atovaquone dosing for some patients, a discontinuation for longer than 50 days disqualified subsequent atovaquone treatment from counting toward a patient's total atovaquone exposure. Patients who received more than one HSCT were excluded (4% of total patients).\nThe patient population consisted of AML patients treated with HSCT at the Dana-Farber Cancer Institute and who survived at least 150 days after transplant without relapse. Patients treated with atovaquone for at least 100 days within the 150-day period were classified as “high atovaquone” exposure, while the remaining patients were classified as “low atovaquone” exposure. […] To further investigate the anti-cancer activity of atovaquone in patients, serum samples were collected from patients approximately 100 days following HSCT who were being treated with either TMP-SMX or atovaquone. […] Atovaquone is a colored compound, and its presence in patient plasma is visibly noticeable."}, "[2]": {"conditions": "clinical use; cited from earlier work"}, "gp130": {"tested_on": "gp130", "assay": "Western blot of total gp130", "format": "cell-based", "experimental": "Western blotting was performed as previously described (Battle T E, Arbiser J, & Frank D A (2005) The natural product honokiol induces caspase dependent apoptosis in B-cell chronic lymphocytic leukemia (B-CLL) cells. Blood 106(2):690-697). Antibodies to phospho-MAPK (9101), total MAPK (9102), phospho-Y705 STAT3 (9131), phospho-S6 (2215), total S6 (2217), phospho-4E-BP1 (9451), total 4E-BP1 (9644), total RSK (9355), phospho-S6K (9234, 85 used at 1:5000), total S6K (2708), phospho-eIF2α (9721, used at 1:1000), total eIF2α (5324), ATF4 (11815, used at 1:1000), PDGFRβ (3169), IGF1Rβ (9750), EGFR (2232), and HER2 (2242) were from Cell Signaling Technology. Phospho-RSK antibody was from R&D (AF889). Antibodies to total STAT3 (sc-482) and gp130 (sc-656, used at 1:1000) were from Santa Cruz Biotechnology. […] Cell viability was measured as ATP-dependent luminescence by Cell Titer Glo (Promega).\nSince atovaquone reduced gp130 expression at the cell surface, it was asked whether this effect was accompanied by reduced total gp130 in the cell. To address this question, a time course of atovaquone treatment was performed and total cellular gp130 was measured by Western blotting in U266 cells treated with atovaquone at 20 μM. […]\nMEF, MDA-MB-468, and SKBR3 cells were treated with atovaquone (25 μM) for 6 or 12 hours, then analyzed by Western blot for expression of gp130 and various other receptors. […]"}, "STAT5": {"tested_on": "STAT5", "assay": "STAT5 phosphorylation in cancer cells", "format": "cell-based", "text": "It has been discovered, using an unbiased gene expression-based approach, that atovaquone is a novel STAT3 inhibitor. Atovaquone acts by diminishing cell-surface gp130 expression and STAT3 tyrosine phosphorylation. As a consequence, critical STAT3 target genes mediating survival and proliferation are reduced, such as survivin, Bcl-2 family members, and cyclin D1. Moreover, atovaquone inhibits the viability of STAT3-dependent cancer cells by inducing apoptosis and disrupting cell cycle progression. […] Since STAT5 activation is crucial to cancer pathogenesis caused by JAK2-V617F, the additional inhibition of STAT5 in this context is a desirable effect of atovaquone. […] Because the effects of atovaquone on STAT activation are restricted to gp130-dependent signaling, atovaquone inhibits STATs more selectively than direct pharmacological JAK inhibition. […] At the same time, the actions of atovaquone extend to all cytokines that signal through gp130, including LIF and OSM, thereby exerting broader effects than therapies specifically directed against IL-6 or IL-6 receptor, such as monoclonal antibodies. This is also advantageous, since oncogenic effects of LIF and OSM have been reported."}}, "note": "Entries after “also recorded” stand apart in the source; their conditions may differ.", "data": [{"smiles": "O=C1C(O)=C([C@H]2CC[C@H](c3ccc(Cl)cc3)CC2)C(=O)c2ccccc21", "note": "[atovaquone, trans-2-[4-(4-chlorophenyl)cyclohexyl]-3-hydroxy-1,4-naphthalenedione]", "values": [{"measurement": "relapse-free survival", "setting": "[1]; \"high atovaquone\" (at least 100 days within the 150-day period) vs \"low atovaquone\"", "result": "significantly improved relapse-free survival"}, {"measurement": "overall survival", "setting": "[1]; \"high atovaquone\" vs \"low atovaquone\"", "result": "trend toward improved overall survival"}, {"measurement": "side effects / tolerability", "setting": "[2]", "result": "side effects are minimal; also recorded: extremely well-tolerated in humans"}, {"measurement": "total gp130 in other cell lines", "setting": "gp130; MEF, SKBR3, MDA-MB-468, 25 μM, 6 or 12 hours", "result": "induced loss of total gp130 after prolonged treatment"}, {"measurement": "total cellular gp130, time course", "setting": "gp130; U266, 20 μM", "result": "not reduced except at much longer time points"}, {"measurement": "mutant JAK2-dependent phosphorylation of STAT5", "setting": "STAT5; HEL cells", "result": "inhibited"}, {"measurement": "STAT5 phosphorylation (BCR-ABL activated)", "setting": "STAT5; K562 cells", "result": "did not inhibit STAT5 phosphorylation"}]}]}
